Assay results as given in US11938138B2, “Methods for improved treatment of cancer” (Washington University, priority 2020, dated 2024).
“Also recorded” adds a separate entry of the source.

Experiments:
K562 cells [1] = experiment: JQ1 treatment of K562 cells, CD24 surface staining by flow cytometry; format: cell-based, human
Procedure: HCT-116, N2a, HEK293T, and HepG2 cells were cultured in Dulbecco's Modified Eagle Medium (DMEM) supplemented with 10% fetal bovine serum (FBS) and 1% of either penicillin-streptomycin or antibiotic-antimycotic. K562 (unless otherwise indicated) and OCM-1A cells were grown under the same conditions as described above, replacing DMEM with RPMI 1640 Medium. Cells were grown at 37° C. with 5% carbon dioxide (CO2). Media was replenished every 2 days. HepG2 cells were a gift from the Genome Engineering iPSC Center (GEiC) at Washington University in St. Louis School of Medicine. OCM-1A cells were a gift from Dr. Michael Onken. For the CD24^high/CD24^low cell state analyses, K562 cells were grown in IMDM containing 10% v/v FBS and 1% penicillin-streptomycin at 37° C. with 5% CO2. Frozen aliquots were thawed and passaged every 48 hours until they reached a maximum concentration of 800,000 cells/ml. For experiments, cells were seeded at mid-log phase concentrations, around 400,000 cells/ml. At this point, ratio of CD24^high/CD24^low cells was approximately 1:1, as determined by flow cytometry.
CD24 surface protein was quantified using monoclonal human antibodies. Cells were spun down at 300 g for 3 minutes and washed twice with 1 mL of Cell Staining Buffer. […] All samples were measured on a Beckman-Coulter CytoFLEX S flow cytometer. […]

K562 cells [2] = experiment: Imatinib treatment of K562 cells after JQ1 pretreatment (CD24, annexin V/PI staining); format: cell-based, human
Procedure: CD24 surface protein was quantified using monoclonal human antibodies. Cells were spun down at 300 g for 3 minutes and washed twice with 1 mL of Cell Staining Buffer. The cell pellet was then resuspended in 50 μl of Cell Staining Buffer containing 0.2 μg of either CD24-APC or CD24-BV421. The tube was rotated at 4° C. in the dark for 30 minutes. After, cells were washed twice (as before) and finally resuspended in 200 μl of Cell Staining Buffer. Cells were excited with 450/45 and 660/20 lasers (wavelength/filter bandwidth, both in nm). For concomitant analysis of DNA content, we used CD24-APC. Cells were incubated with 10 μg/ml Hoechst 33342 in 5 mL of growth medium for 30 minutes prior to the staining protocol. For simultaneous assessment of apoptosis, cells were stained with CD24-BV421. After the final wash, instead of resuspending in 200 μl of Cell Staining Buffer, cells were washed twice with Annexin V Staining Buffer. […] All samples were measured on a Beckman-Coulter CytoFLEX S flow cytometer. […]
For the analysis of annexin V levels in either JQ1- or DMSO-treated CD24^high and CD24^low cells, we used a three-way ANOVA with treatment, cell state, and day as independent variables. […] For the cell cycle inhibitor experiment, data were analyzed using a one-way ANOVA with Dunnett's post hoc test using either DMSO or EtOH (for RO-3306) as controls.

K562 cells [3] = experiment: Cell cycle perturbation of K562 cells (DNA content, CD24, annexin V/PI); format: cell-based, human; conditions: five days, one-way ANOVA p<0.01 (FIG. 14H)
Procedure: CD24 surface protein was quantified using monoclonal human antibodies. Cells were spun down at 300 g for 3 minutes and washed twice with 1 mL of Cell Staining Buffer. The cell pellet was then resuspended in 50 μl of Cell Staining Buffer containing 0.2 μg of either CD24-APC or CD24-BV421. The tube was rotated at 4° C. in the dark for 30 minutes. After, cells were washed twice (as before) and finally resuspended in 200 μl of Cell Staining Buffer. Cells were excited with 450/45 and 660/20 lasers (wavelength/filter bandwidth, both in nm). For concomitant analysis of DNA content, we used CD24-APC. Cells were incubated with 10 μg/ml Hoechst 33342 in 5 mL of growth medium for 30 minutes prior to the staining protocol. For simultaneous assessment of apoptosis, cells were stained with CD24-BV421. After the final wash, instead of resuspending in 200 μl of Cell Staining Buffer, cells were washed twice with Annexin V Staining Buffer. Cells were then incubated in 50 μl Annexin V Staining Buffer containing 0.2 μg Annexin V-FITC and 100 μg/ml propidium iodide (PI). The reaction was incubated for 15 minutes at room temperature in the dark. Afterward, we added 150 μl of Annexin V Staining Buffer and proceeded to flow cytometry. All samples were measured on a Beckman-Coulter CytoFLEX S flow cytometer. Cells were excited with 450/45, 525/40, and 610/20 lasers. We collected 10,000 events per sample. The resulting data were processed with FlowJo Software for Mac Version 10.
We perturbed the cell cycle with lovastatin and nocodazole, two drugs classically used to synchronize cells in culture (Jackman and O'Connor, 2001), as well as the cyclin-dependent kinase inhibitors CVT-313 (Brooks et al., 1997) and RO-3306 (Vassilev et al., 2006). All drugs were dissolved in DMSO except nocodazole, which was dissolved in ethanol. […] Media was refreshed every 48 hours. After 36 hours of treatment, we stained for CD24 levels and nuclear DNA content. We gated for live, single cells using the forward scatter (FSC) and side scatter channels (SSC). Univariate cell cycle analysis was performed with FlowJo. We confirmed that all drugs perturbed cell cycle by altering the proportions of cells in either G1 or G2/M phase (FIG. 14G). […] Cultures remained under drug treatment until five days had elapsed, at which point we measured CD24 levels and stained for apoptosis (FIG. 14H). As before, we set gates to exclude debris to quantitate annexin V and PI, and measured CD24 in live cells gated on FSC and SSC. The G2 inhibitors, in particular, had very few cells in the FSC/SSC gate (typically below 5%).
For the analysis of annexin V levels in either JQ1- or DMSO-treated CD24^high and CD24^low cells, we used a three-way ANOVA with treatment, cell state, and day as independent variables. […] Multiple hypothesis correction was performed using Tukey's honestly significant difference. For the cell cycle inhibitor experiment, data were analyzed using a one-way ANOVA with Dunnett's post hoc test using either DMSO or EtOH (for RO-3306) as controls.

[4] = system: MNNG/HOS osteosarcoma cells; conditions: as single agent; cited from earlier work
MYC and CD24 mRNA = experiment: qRT-PCR for MYC and CD24 expression in K562 cells treated with JQ1; format: cell-based, human; conditions: K562, 250 nM JQ1, first 24 hours (FIG. 14C)
Procedure: Cells were pelleted, resuspended in 300 μl of RNA CellProtect, and stored at −80° C. When we were ready to extract RNA, we thawed cells, prepared samples using QIAGEN RNEasy Plus Mini Kit, and quantitated with the Qubit RNA High Sensitivity kit. We reverse transcribed 500 ng of RNA with the SuperScript VILO cDNA Synthesis Kit in a 20 μl reaction, with the following thermocycling parameters: 25° C. for 10 minutes; 42° C. for 2 hours; 85° C. for 5 minutes. We then performed PCR with 2 μl of the RT product as template, 1 μl each of forward and reverse primer (10 μM), 6 μl ddH2O, and 10 μl PowerUp SYBR Green Master Mix. We ran the PCR on an ABI QuantStudio 3 with the following settings: 2 minutes at 50° C., then 2 minutes at 95° C. (hot start); 45 cycles of 95° C. for 15 s followed by 60° C. for 1 minute. We generated melt curves after each PCR and all samples yielded a single peak. Gene-specific primers were obtained from PrimerBank (Wang et al., 2012b). Data were normalized to the levels of […].

K562 cells [5] = conditions: Litzenburger et al., 2017; cited from earlier work
[6] = system: Hematologic and solid malignancies; 17 with NMC; conditions: cited from earlier work

With `Cc1sc2c(c1C)C(c1ccc(Cl)cc1)=N[C@@H](CC(=O)OC(C)(C)C)c1nnc(C)n1-2` [JQ1] the “time course of conversion to CD24low state” value (K562 cells [1]; K562, 250 nM JQ1, 7-day time course (FIG. 6D), rapid over first two days, stable at one week) was “plateaus at day four; also recorded: plateaued by day 4”, the “CD24low cells in the population after JQ1 exposure” value (K562 cells [1]; K562, 250 nM JQ1, 96 h (FIG. 6C), start equal proportions CD24high/CD24low) was over 95% and the “sensitivity of K562 cells to imatinib” value (K562 cells [2]; BET inhibitor pretreatment, then imatinib 1 μM) was “sensitizes K562 cells to imatinib”. For the same compound, the “fraction of CD24high cells after pretreatment (mean)” value (K562 cells [2]; K562, 250 nM JQ1 for five days, DMSO group 54%) was 17%, the “reduction in CD24high cells compared with cell cycle inhibitors” value (K562 cells [3]; 250 nM JQ1) was “greatest reduction” and the “apoptosis compared with lovastatin, its closest competitor” value (K562 cells [3]; annexin V/PI) was “significantly less apoptosis”. The “tumor volume and weight” value [4] was “had no effect on either” and the “time of JQ1 exposure within which MYC mRNA levels fell” value (MYC and CD24 mRNA) was at most 3 h.
In the case of `Cc1ccc(NC(=O)c2ccc(CN3CCN(C)CC3)cc2)cc1Nc1nccc(-c2cccnc2)n1` [imatinib], the “apoptosis of CD24low versus CD24high K562 cells when exposed to imatinib” value (K562 cells [5]) is given as “more apoptosis”.
In the case of `CCNC(=O)C[C@@H]1N=C(c2ccc(Cl)cc2)c2cc(OC)ccc2-n2c(C)nnc21` [GSK525762], the “Responses observed: PR in NMC patients” value ([6]; 17 with NMC) is given as 2, the “Responses observed: SD in NMC patients” value ([6]; 17 with NMC) is given as 4 and the RP2D ([6]; daily, 70 patients) is given as 80 mg.
